Data from patent EP4603504A1, “NOVEL CATHEPSIN K AND L INHIBITORS” (ECOLE POLYTECHNIQUE FEDERALE DE LAUSANNE (EPFL), priority 2024, dated 2025).
pIC50: −log10 of the molar value. Peptide text beside a SMILES is read from it.

Columns and labels:
[1] = test system: panel of 7 different cysteine cathepsin proteases; assay: FRET assays on a panel of cathepsins (selectivity); assay type: biochemical; details: profiled against five additional cathepsins (Fig. 1)
From the text: The figures show. • Figure 1. […] A schematic representation of the structure of the NNPI is given to the left.

CTSL [2] = target: T1, CTSL (Homo sapiens, UniProt P07711); assay: FRET assay on cathepsin L (CTSL); assay type: biochemical; details: substrate Z-Leu-Arg-AMC, inhibitor preincubated 30 minutes, n=3
T1 construct: purchased R&D systems 952-CY-010
Procedure: (§1) In brief, CTSK or CTSL was diluted to 20 µg/ml or 40 µg/ml respectively, in Assay Buffer (50 mM MES, 5 mM DTT, 1 mM EDTA, 0.005% (w/v) Brij-35, pH 6.0), and incubated on ice for 15 minutes. After activation, CTSK or CTSL was diluted to 0.02 µg/ml in Assay Buffer. The substrate peptide Z-Leu-Arg-AMC (R&D systems, cat #ES008) was then diluted to 20 µM in Assay buffer (40 µM for CTSL).
(§2) Next, 50 µl of the enzyme solution was loaded in a 96-well plate, inhibitors to be tested were added to the enzyme and incubated for 30 minutes, and then the reaction was started by adding 50 µl of the fluorogenic substrate. A substrate blank containing 50 µl of Assay Buffer and 50 µl of substrate without any cathepsin was included. Fluorescent emission was measured with SpectraMax iD3 (Molecular Devices) in kinetic mode for 60 minutes (excitation: 380 nm, emission: 460 nm).

CTSL [3] = target: T1, CTSL; assay: FRET assay cathepsin L; assay type: biochemical; details: result in words, compared with other NNPIs (Fig 2h-j)
Procedure: as §1, §2
A library of 32 NNPIs was screened by FRET assay on CTSK and CTSL by using 384-well plates. For each of the amino acid positions from 2 to 7 in the original NNPI-E15 structure, 6 different amino acid substitutions were tested (A, L, T, W, E or R). The final concentrations of enzyme and substrate were the same as the ones described above for the respective FRET assays. The final reaction volume per well was 20 µl. The inhibitor concentration was 30 nM. Fluorescent emission was measured with a BioTek Neo HTS plate reader.

[4] = Solubility (remark in text, no method); assay type: physicochemical

T1 sequence (P07711 114-333): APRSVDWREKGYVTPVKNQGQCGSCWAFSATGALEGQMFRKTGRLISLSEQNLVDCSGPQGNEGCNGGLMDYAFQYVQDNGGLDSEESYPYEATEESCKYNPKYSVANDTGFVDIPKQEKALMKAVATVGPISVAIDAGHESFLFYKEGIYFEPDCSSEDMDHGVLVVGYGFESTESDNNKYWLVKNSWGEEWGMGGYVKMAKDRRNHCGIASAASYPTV

CC[C@H](C)[C@H](NC(=O)[C@@H](NC(=O)/C=C/CNC(=O)[C@H](CC(C)C)NC(=O)[C@H](CCCNC(=N)N)NC(=O)[C@H](CCCNC(=N)N)NC(=O)[C@@H](N)CCCCN)C(C)C)C(=O)N[C@@H](CCCNC(=N)N)C(N)=O [NNPI-F17, KRRL(Y)VIR] (HELM PEPTIDE1{K.R.R.L.[O=C(/C=C/CN[*:1])[*:2]].V.I.R.[am]}$$$$V2.0; N-terminus and C-terminus assumed)
selectivity [1]: good selectivity

CC(C)C[C@H](NC(=O)[C@H](CCCNC(=N)N)NC(=O)[C@@H](N)CCCCN)C(=O)N[C@@H](Cc1c[nH]c2ccccc12)C(=O)NC/C=C/C(=O)N[C@H](C(=O)N[C@@H](CC(C)C)C(=O)N[C@@H](Cc1c[nH]c2ccccc12)C(N)=O)C(C)C [NNPI-G14, KRLW(Y)VLW] (HELM PEPTIDE1{K.R.L.W.[O=C(/C=C/CN[*:1])[*:2]].V.L.W.[am]}$$$$V2.0)
selectivity [1]: good selectivity | pIC50 (CTSL [2]): 8.77

KRLW(Y)VMW [NNPI-G12] [listing 1 of 2 here]
inhibitory potency on CTSL (CTSL [3]): most potent inhibitor

KRLW(Y)VMW [NNPI-G12] [listing 2 of 2 here]
solubility [4]: poor
